The results in this text go back to US6392049B1, “Process for preparing 2,4-dihydroxypyridine and 2,4-dihydroxy-3-nitropyridine” (Aventis Pharmaceuticals Inc., priority 1996, dated 2002).

Like-named read-outs stand apart in the source and are kept apart here.

The target of one assay is T1, A1 receptor (Rattus norvegicus, UniProt P25099).
T1 construct: using a membrane preparation of whole rat brain; from tissue; host or cells: whole rat brain membranes
T1 sequence (P25099 1-326): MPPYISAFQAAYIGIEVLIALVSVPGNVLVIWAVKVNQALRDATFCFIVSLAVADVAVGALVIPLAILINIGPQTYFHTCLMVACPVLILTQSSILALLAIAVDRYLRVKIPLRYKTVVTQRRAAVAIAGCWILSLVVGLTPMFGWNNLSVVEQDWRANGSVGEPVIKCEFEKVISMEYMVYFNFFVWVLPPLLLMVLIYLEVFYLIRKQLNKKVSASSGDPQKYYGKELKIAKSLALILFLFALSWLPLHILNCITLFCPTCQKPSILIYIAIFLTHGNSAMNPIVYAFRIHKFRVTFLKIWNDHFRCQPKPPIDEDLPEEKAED
The assay can be described thus: A1 adenosine receptor binding, displacement of 3H-CHA, whole rat brain membranes. The note with it: 3H-CHA displacement, 25° C., 60 minutes. The protocol:
Non-specific binding is assessed in the presence of 1 mM theophylline.
(§1) The assays are run in glass test tubes in duplicate at 25° C. Once the membranes are added, the tubes are vortexed and incubated at 25° C. for 60 minutes (A1 assay) or 90 minutes (A2 assay) on a rotary shaker. The assay tubes are vortexed halfway through the incubation and again near the end. The assays are terminated by rapid filtration through 2.4 cm GF/B filters using a Brandel Cell Harvestor. The test tubes are washed three times with cold 50 mM tris-HCl (pH 7.7 or 7.4), with filtration being completed within 15 seconds. The damp filter circles are placed in glass scintillation vials filled with 10 ml of Aquasol II (New England Nuclear). The vials are allowed to shake overnight on a rotary shaker and are placed into a liquid scintillation analyzer for two minute counts. IC50 values for receptor binding, i.e. the concentration at which a compound of Formula I displaced the radiolabeled standard, are obtained using a curve-fitting computer program (RS/1, Bolt, Beranek and Newman, Boston, Mass.).
In general terms: Displacement assays read how much labelled ligand stays bound in the presence of the test substance.

A further assay has as its target T2, A2 receptor (Rattus norvegicus, UniProt P30543).
T2 construct: using membranes from rat brain striatum; from tissue; host or cells: rat brain striatum membranes
Description: A2 adenosine receptor binding, displacement of 3H-CGS 21680, rat brain striatum membranes. The following applies: 3H-CGS 21680 displacement, rat brain striatum membranes, 25° C., 90 minutes; read-out: Adenosine Receptor Binding Activity/IC50 (nM) A2. The protocol:
Non-specific binding is assessed in the presence of 20 μm 2-chloroadenosine.
as §1

A further assay deals with swine coronary arteries. Description: In vitro vasorelaxation in isolated swine coronary arteries. The assay is classed as cell-based. The protocol: Swine coronary arteries are obtained from a local slaughter house, dissected carefully and cleaned of fat, blood and adhering tissue. Rings approximately 2-3 mm wide are cut and transferred to water-jacketed tissue baths (10 mL) filled with warm (37° C.), oxygenated (O2/CO2:95%/5%) Krebs-Henseleit buffer and mounted on L-shaped hooks between stainless steel rods and a force transducer. […] PGF2a, before being exposed to 3 μM PGF2a.

Setting [1] is: Sus scrofa, read-out: Vasorelaxation in Swine Coronary Artery/IC50 (μM).
The mark [2] stands for this setting: 50% reduction in tension of rings contracted with 3 μM PGF2a, read-out: Vasorelaxation in Swine Coronary Artery/IC50.

T2 sequence (P30543 whole entry): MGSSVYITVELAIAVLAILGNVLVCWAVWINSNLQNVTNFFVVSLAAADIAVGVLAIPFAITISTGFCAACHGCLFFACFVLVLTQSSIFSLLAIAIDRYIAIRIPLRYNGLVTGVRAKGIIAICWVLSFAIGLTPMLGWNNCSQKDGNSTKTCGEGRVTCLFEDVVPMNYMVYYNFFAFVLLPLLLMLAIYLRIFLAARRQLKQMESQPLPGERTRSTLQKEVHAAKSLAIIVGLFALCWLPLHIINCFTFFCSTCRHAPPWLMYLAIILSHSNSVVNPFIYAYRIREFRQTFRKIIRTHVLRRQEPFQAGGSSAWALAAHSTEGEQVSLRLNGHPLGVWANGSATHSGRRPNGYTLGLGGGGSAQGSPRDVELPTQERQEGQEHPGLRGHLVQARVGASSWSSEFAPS

As for `Cc1nc(CCNc2ncnc3c2ncn3[C@@H]2O[C@H](CO)[C@@H](O)[C@H]2O)cs1` [Example 14, N^6-[2-(2′-methyl-4′-thiazolyl)-ethyl]adenosine], the IC50 is 79.4 nM at A1 receptor and > 1000 nM on A2 receptor.
As for `CCNC(=O)[C@H]1C[C@@H](n2cnc3c(N[C@H](C)Cc4ccc(Cl)s4)ncnc32)[C@H](OC(=O)OC)[C@@H]1OC(=O)OC` [Example 42, (2S)-2a,3a-bis-methoxycarbonyloxy-4β-[N6-[2-(5-chloro-2-thienyl)-(1R)-1-methylethyl]amino-9-adenyl]cyclopentane-1β-N-ethylcarboxamide], the IC50 on A1 receptor was > 1000 nM; on A2 receptor, > 10000 nM; in the assay on swine coronary arteries (setting [1]) it was 2.44 µM.
Turning to `CCC(Cc1ccc(Cl)s1)Nc1ncnc2c1ncn2[C@@H]1O[C@H](CO)[C@@H](O)[C@H]1O` (stereo partly shown) [Example 21, N^6-[1-(5″-chlorothien-2″-yl)-2-butyl]adenosine], the results for the IC50 at A1 receptor and at A2 receptor were 0.09 nM and 14.8 nM, respectively.
Consider `CCNC(=O)[C@H]1C[C@@H](n2cnc3c(NC(CC)Cc4sccc4Cl)ccnc32)[C@H](O)[C@@H]1O` (stereo partly shown) [Example 37], for which the IC50 on A1 receptor turned out to be 16.2 nM; on A2 receptor it was 110 nM; with swine coronary arteries (setting [1]) it was 0.45 µM.
Consider `CCNC(=O)C1CC(n2cnc3c(NC(CC)Cc4sccc4Cl)ccnc32)C(O)C1O` (single isomer, unassigned) [Example 39, [1S-[1a,2b,3b,4a(S*)]]4-[7-[[2-(3-chloro-2-thienyl)-1-ethylethyl]amino]-3H-imidazo[4,5-b]pyridin-3-yl]-N-ethyl-2,3-dihydroxycyclopentane-carboxamide], for which the IC50 at A1 receptor amounted to 3.98 nM; on A2 receptor, 46.8 nM.
Regarding `CCNC(=O)[C@H]1C[C@@H](n2cnc3c(N[C@H](C)Cc4ccc(Cl)s4)[n+]([O-])cnc32)[C@H](O)[C@@H]1O` [Example 35, (2S)-2a,3a-dihydroxy-4β-[N6-[2-(5-chloro-2-thienyl)-(1R)-1-methylethyl]amino-9-adenyl]cyclopentane-1β-N-ethylcarboxamide-N^1-oxide], the IC50 was determined as 1090 nM on A1 receptor, 6350 nM at A2 receptor and 3.3 µM with swine coronary arteries (setting [1]).
Take `CCC(Cc1sccc1Cl)Nc1ncnc2c1ncn2[C@@H]1O[C@H](CO)[C@@H](O)[C@H]1O` (stereo partly shown) [Example 31, N^6-[1-ethyl-2-(3-chlorothien-2-yl)ethyl]adenosine]: the IC50 amounted to 0.03 nM on A1 receptor and 8.9 nM at A2 receptor.
For `OC[C@H]1O[C@@H](n2cnc3c(NCCSc4nc5ccccc5s4)ncnc32)[C@H](O)[C@@H]1O` [Example 10, N^6-[2-(2′-thiobenzothiazolyl)-ethyl]adenosine] the same measures were 3.8 nM and > 1000 nM.
In the case of `C[C@H](Cc1sccc1Cl)Nc1ncnc2c1ncn2[C@@H]1O[C@H](CO)[C@@H](O)[C@H]1O` [Example 32, N^6-[1-methyl-2-(3-chlorothien-2-yl)ethyl]adenosine], the IC50 at A2 receptor was 45 nM.
As for `CCNC(=O)C1CC(n2cnc3c(N[C@H](C)Cc4ccc(Cl)s4)ncnc32)C2OC(C)(C)OC12` (single isomer, unassigned; (-)) [6(1)], the IC50 is > 1000 nM on A1 receptor, > 1000 nM at A2 receptor and 19.1 µM in the assay on swine coronary arteries (setting [2]).
For `OC[C@H]1O[C@@H](n2cnc3c(NCc4nc(-c5ccccc5)cs4)ncnc32)[C@H](O)[C@@H]1O` [Example 19], the IC50 on A1 receptor is 36 nM; at A2 receptor, 1000 nM; with swine coronary arteries (setting [2]), 0.75 µM.
On to `CCNC(=O)[C@H]1O[C@@H](n2cnc3c(NC4CC=CCC4c4cccs4)ncnc32)[C@H](O)[C@@H]1O` (single isomer, unassigned) [Example 5, N6-[trans-2-(thiophen-2-yl)cyclohex-4-en-1-yl]adenosine-5′-N-ethylcarboxamide], for which the IC50 on A1 receptor was 4.26 nM; at A2 receptor, 91 nM; in the assay on swine coronary arteries (setting [1]) it was 0.068 µM.
The corresponding values for `CCNC(=O)[C@H]1C[C@@H](n2cnc3c(N[C@H](C)Cc4ccc(Cl)s4)ncnc32)[C@@H]2OC(OCC)O[C@@H]21` (stereo partly drawn) [Example 43, (2S)-2a,3a-dihydroxy-4β-[N6-[2-(5-chloro-2-thienyl)-(1R)-1-methylethyl]amino-9-adenyl]cyclopentane-1β-N-ethylcarboxamide ethoxymethylene acetal] are 8430 nM, > 10000 nM and 7.83 µM.
As for `CCNC(=O)[C@H]1C[C@@H](n2cnc3c(N[C@@H](C)Cc4ccc(Cl)s4)ccnc32)[C@H](O)[C@@H]1O` (relative stereo) [Example 36, [1S-[1a,2b,3b,4a(S*)]]-4-[7-[[2-(5-chloro-2-thienyl)-1-methylethyl]amino]-3H-imidazo[4,5-b]pyridin-3-yl]-N-ethyl-2,3-dihydroxycyclopentanecarboxamide], the results for the IC50 on A1 receptor, on A2 receptor and in the assay with swine coronary arteries (setting [2]) were 8.8 nM, 43.4 nM and 0.493 µM, respectively.
Turning to `CCNC(=O)C1CC(n2cnc3c(N[C@H](CC)Cc4sccc4Cl)ncnc32)C(O)C1O` (single isomer, unassigned; (-)) [Example 34], the values for the IC50 at A1 receptor, at A2 receptor and in the assay with swine coronary arteries (setting [2]) were 1.6 nM, 23 nM and 0.072 µM, respectively.
On to “(2S)-2a,3a-dihydroxy-4β-[N6-[2-(5-chloro-2-thienyl)-(1R)-1-methylethyl]amino-9-adenyl]cyclopentane-1β-N-ethylcarboxamide-2,3-carbonate [Example 44]”, for which the IC50 worked out at 55 nM on A1 receptor, 331 nM at A2 receptor and 0.316 µM in the assay on swine coronary arteries (setting [2]).
The corresponding values for `CC(C)(Cc1cccs1)Nc1ncnc2c1ncn2[C@@H]1O[C@H](CO)[C@@H](O)[C@H]1O` [Example 17, N^6-[2-(1,1-dimethyl-2′-thiophenyl)ethyl]adenosine] are 67.6 nM, 5250 nM and 18.8 µM.
In the case of `CCNC(=O)C1CC(n2cnc3c(NC(C)Cc4cccs4)ncnc32)C(O)C1O` (single isomer, unassigned; (-)) [Example 27], the IC50 worked out at 5.01 nM on A1 receptor, 29.5 nM at A2 receptor and 0.043 µM with swine coronary arteries (setting [1]).
For `CCNC(=O)[C@H]1C[C@@H](n2cnc3c(N[C@H](C)Cc4ccc(Cl)s4)ncnc32)[C@H](OC(=O)NC)[C@@H]1OC(=O)NC` [Example 45] the same measures were 6350 nM, > 10000 nM and 4.1 µM.
Take `CCNC(=O)[C@H]1C[C@@H](n2cnc3c(N[C@H](CC)Cc4ccc(Cl)s4)ccnc32)[C@H](O)[C@@H]1O` [Example 41]: the IC50 at A1 receptor stood at 14.2 nM; on A2 receptor, 158 nM.
For `OC[C@H]1O[C@@H](n2cnc3c(NCCc4nc(-c5ccccc5)cs4)ncnc32)[C@H](O)[C@@H]1O` [Example 16, N^6-[2-(4′-phenyl-2′-thiazolyl)-ethyl]adenosine] the same measures were 1.7 nM and > 1000 nM.
Consider `CCNC(=O)C1CC(n2cnc3c(NCCc4ccsc4)ncnc32)C(O)C1O` (racemic) [Example 28, (±)-N^6-[1-(thiopen-3-yl)ethan-2-yl]carbocyclic adenosine-5′-N-ethyl carboxamide], for which the IC50 at A1 receptor is 417 nM; at A2 receptor it was > 1000 nM.
For `CC(Cc1nccs1)Nc1ncnc2c1ncn2[C@@H]1O[C@H](CO)[C@@H](O)[C@H]1O` (stereo partly shown) [Example 20, N^6-[1-(thiazol-2-yl)prop-2-yl]-adenosine] the same measures were 3.98 nM and 158 nM.
